Assay results from US12180146B2, “Antihypertensive polyol compound and derivative thereof” (TAO PHARMACEUTICAL (SUZHOU) CO., LTD, priority 2020, dated 2024).

Key:
[1] = test system: monocrotaline-induced pulmonary hypertension model rats (MCT-PAH); assay: Monocrotaline-induced pulmonary hypertension model rats, oral (gavage) treatment for 21 days; assay type: in vivo, SD rats; conditions: 100 mg/kg
[2] = test system: monocrotaline-induced pulmonary hypertension model rats (MCT-PAH); assay: Monocrotaline-induced pulmonary hypertension model rats, aerosol inhalation treatment; assay type: in vivo, SD rats; conditions: inh, 28 days
Experimental: A pulmonary hypertension animal model of SD rats was established by subcutaneous injection of monocrotaline (MCT). The compound 1 was administered by aerosol inhalation for treatment. The pulmonary artery hemodynamics and right heart hypertrophy index RVHI of rats were tested to determine whether compound 1 administered by aerosol inhalation has effects of improving monocrotaline-induced pulmonary hypertension.
SD rats (purchased from Shanghai Xipuer-Bikai Experimental Animal Co., Ltd.), male, weighing 180-200 g, were bred in an artificially controlled animal room with each 12 hours of light and darkness at a temperature of 20-25° C. and relative humidity of 50-60%, and allowed ad libitum to food and water. The rats were randomly divided into groups according to the experimental requirements, and kept separately in cages, with 3 to 4 rats per cage. All relevant operations of animal experiments are in compliance with the provisions of “Guidelines for the Management and Use of Laboratory Animals” of China.
In the second experiment, the rats were divided into 5 groups, namely the control group, model group, positive control Tyvaso (1.62 μg/kg) group, compound 1 (10 mg/kg) group and compound 1 (30 mg/kg) group. On the first day of the experiment, normal saline was injected subcutaneously into the back of the neck of the rats in the blank control group, and monocrotaline (Chengdu Purifa Biotechnology Co., Ltd.) solution was injected in the other groups at a dosage of 60 mg/kg. Compound 1 and Tyvaso were administered by aerosol inhalation, that is, the compound was firstly dissolved in physiological saline, and then the solution was prepared into an aerosol with a nebulizer to be inhaled into the mouth and nose of rats. The rats in the control group and the model group only inhaled an aerosol made of physiological saline. The rats were continuously administered for 28 days, and the concentration in the parentheses of the group name represents the administered concentration of the compound. Specific groupings can be found in Table 9. After the administration, the pulmonary vascular hemodynamics and RVHI were determined in the same way as the experiment method in Example 1.

CCc1cccc(C(O)CO)c1 (stereo not drawn) [Compound 1, 1-(3-ethylphenyl)-1,2-ethylene glycol]
2 × MT/ED [1]: 0.27 ± 0.062 | RVHI [1]: 0.31 ± 0.059 | RVSP [1]: 39.72 ± 3.46 mmHg | mPAP [1]: 9.21 ± 2.69 mmHg | RVHI ([1]; listed as compound 1, 100 mg/kg): 0.31±0.059 | 2 × MT/ED ([2]; 10 mg/kg): 0.335 ± 0.034 | RVHI ([2]; 10 mg/kg): 0.235 ± 0.026 | RVSP ([2]; 10 mg/kg): 35.92 ± 3.74 mmHg | mPAP ([2]; 10 mg/kg): 11.46 ± 2.48 mmHg | RVHI ([2]; 10 mg/kg, listed as compound 1, 10 mg/kg): 0.235±0.026 | 2 × MT/ED ([2]; 30 mg/kg): 0.319 ± 0.035 | RVHI ([2]; 30 mg/kg): 0.204 ± 0.035 | RVSP ([2]; 30 mg/kg): 31.18 ± 4.62 mmHg | mPAP ([2]; 30 mg/kg): 8.06 ± 2.59 mmHg | RVHI ([2]; 30 mg/kg, listed as compound 1, 30 mg/kg): 0.204±0.035
